According to paper PMC3210109, “Flexible catalytic site conformations implicated in modulation of HIV-1 protease autoprocessing reactions” (Retrovirology, 2011):

Columns and labels:
PR^NL H69D precursor = molecular target: T1, PR^NL H69D precursor (Human immunodeficiency virus type 1 group M subtype B, UniProt P12497, H557D); assay type: cell-based, HIV-1; details: darunavir, Figure 2F
T1 construct: expressed in transfected cells; host or cells: HEK293T
Description: (§1) HEK293T cells (ATCC, Manassas, VA) were maintained in DMEM containing 10% fetal bovine serum and penicillin/streptomycin (0.6% Penicillin G sodium salt, 1.0% Streptomycin sulfate, 0.85% NaCl). Plasmid DNA was transfected into HEK293T cells using calcium phosphate as previously described [25, 46]. Briefly, HEK293T cells were seeded in 12-well plates the day before transfection to achieve 50~60% confluence at the time of transfection. About 1 h prior to transfection, chloroquine was added into each well to a final concentration of 25 μM. A total of 0.5 μg plasmid DNA in 65.7 μl H2O was mixed with 9.3 μl of 2 M CaCl2. Then 75 μl of 2xHBS (50 mM Hepes, pH7.04~7.05, 10 mM KCl, 12 mM Dextrose, 280 mM NaCl, 1.5 mM Na2HPO4) was added to the DNA-Ca mixture followed by gentle agitation. The resulting mixture was directly added drop-wise to each well. […] After 7-8 h incubation at 37°C, 5% CO2, the transfection medium was replaced with fresh chloroquine-free medium containing the corresponding protease inhibitors. […]
(§2) For quantification of protein intensity, Western blot images captured by an Odyssey infrared dual laser scanning unit were analyzed using TotalLab software (Nonlinear Dynamics Inc.). The total pixel volume of each band was quantified and normalized; the highest value was arbitrarily set at 1000.

[1] = tested on: HIV-1 infected cells (p24 production); details: ref [40],[41], read-out: IC50 to inhibit the production of p24; cited from earlier work
mature protease = details: ref [40],[41]; cited from earlier work
[2] = molecular target: embedded protease of GST-p6*-PR^NL-HA / GST-M1-PR^NL-HA fusion precursor (proximal site) (Human immunodeficiency virus type 1, UniProt P12497); assay: P site cleavage reaction mediated by the embedded protease, PR^NL fusion precursor, HEK293T cells; assay type: cell-based, HIV-1; details: darunavir; embedded vs released protease
Description: as §1, §2

[3] = tested on: embedded protease of GST-M2-PR (tagless precursor); assay: P site cleavage reaction, tagless precursor GST-M2-PR; assay type: cell-based, HIV-1; parameters: dose or concentration left out as unconfirmed; details: […] nM darunavir
Excerpt: To examine whether different amino acid sequences fused to the C-terminus of PR influence protease autoprocessing, we engineered a panel of fusion precursors carrying different C-terminal epitopes (Figure 5A). A truncated version of M2 p6* (Figure 2A) was used to allow focused examination of the P site cleavage reaction. We also constructed GST-M2-PR, a precursor lacking any C-terminal epitope, to serve as a reference control.
HEK293T cells (ATCC, Manassas, VA) were maintained in DMEM containing 10% fetal bovine serum and penicillin/streptomycin (0.6% Penicillin G sodium salt, 1.0% Streptomycin sulfate, 0.85% NaCl). Plasmid DNA was transfected into HEK293T cells using calcium phosphate as previously described [25, 46]. Briefly, HEK293T cells were seeded in 12-well plates the day before transfection to achieve 50~60% confluence at the time of transfection. About 1 h prior to transfection, chloroquine was added into each well to a final concentration of 25 μM. A total of 0.5 μg plasmid DNA in 65.7 μl H2O was mixed with 9.3 μl of 2 M CaCl2. […]
as §2

[4] = tested on: in vitro translated Gag-Pol precursor; parameters: method as in PMID 15280456; details: ref [21]; cited from earlier work

Structure (SMILES) | suppression of autoprocessing reactions mediated by the embedded H69D PR (PR^NL H69D precursor) | effect of treatment on the amount of the released proteases (H69D) (PR^NL H69D precursor; PR^NL H69D precursor) | IC50 [1] [nM] | affinity for the catalytic site of the mature protease (mature protease) | embedded protease less sensitive to inhibition than the corresponding released protease [2] | suppression of the cleavage reaction, tagless precursor [3] | sensitivity of Gag-Pol precursor to inhibition compared to the mature protease [4]
CC(C)CN(C[C@@H](O)[C@H](Cc1ccccc1)NC(=O)O[C@H]1CO[C@H]2OCC[C@H]21)S(=O)(=O)c1ccc(N)cc1 [darunavir] | not suppressed | did not increase | ~5 | low nanomolar | at least 100 fold | not suppressed | –
CC(C)c1nc(CN(C)C(=O)N[C@H](C(=O)N[C@@H](Cc2ccccc2)C[C@H](O)[C@H](Cc2ccccc2)NC(=O)OCc2cncs2)C(C)C)cs1 [ritonavir] | – | – | – | – | – | – | significantly low sensitivity
